Test results from paper PMC5435687 (Scientific Reports, 2017).

Test system: SH-SY5Y cells
Assay: Aβ uptake under pharmacological inhibition of endocytic mechanisms (flow cytometry)
Assay type: cell-based, human
Conditions: for effect of CPZ on Aβ uptake: 5 µg/ml CPZ; for reduction in Aβ uptake with cytochalasin A or D: 10 µM cytochalasin A or 25 µg/ml cytochalasin D
Protocol: Flow cytometry was used to quantify cellular uptake. […] For experiments including Trf B-27 was omitted, as outlined above. […] All samples were kept on ice until they were analysed on a Guava EasyCyte 8HT (Millipore, Darmstadt, Germany) that automatically retrieves samples from a 96-well plate. In order to exclude effects due to difference in delay time we used mixed order of analysis, loading only a few samples at a time with the remaining samples kept on ice. The cell counting gate was determined using propidium iodide (0.5 µM, not washed away prior to analysis) and calcein-AM (10 nM, 15 min staining) to distinguish live and dead cells, and for each sample 5,000 cells from within the live gate were counted and analysed. HF488, AlexaFluor488, EGFP and calcein-AM were excited by a 488 nm laser and their fluorescence was detected through a 525/30 nm filter. Propidium iodide and mRFP were excited by the 488 nm laser but detected through a 692/46 nm filter. HF647 and AlexaFluor647 were excited with a 635 nm laser and detected through a 661/19 nm filter. Compensation was performed to adjust for bleed through in experiments including mRFP. Mean cellular uptake was estimated as the average fluorescence intensity of all cells gated within the live region and all individual experiments were performed with three technical replicates (n = 3) unless else is stated. The average fluorescence intensity was baseline corrected by subtracting the signal for unstained cells.
Endocytic mechanisms were also perturbed by treatment of cells with pharmacological inhibitors. Stock solutions of cytochalasin A, cytochalasin D, dynasore, wortmannin and IPA-3 were prepared in DMSO and diluted in serum-free cell culture media supplemented with 30 mM HEPES on the day of the experiment. The final DMSO concentration added to the cells was kept <0.1% and matched for the control. […] The cells were centrifuged 1000 * g for 5 min at 4 °C, washed 3x with ice-cold serum-free medium, followed by detachment and immediate flow cytometry analysis, as detailed above. […] Only the live cells were included in the analysis. Trf was used as a positive control for clathrin-mediated endocytosis. Due to the rapid uptake and recycling of internalized Trf we adopted an optimized protocol with sufficiently short Trf incubation times. First, to remove the quantities of membrane-bound Trf that originate from the serum component of the complete culture medium the cells were washed 3x in serum-free medium. The cells were then subjected to the inhibitors as described above and thereafter exposed to a 5 min pulse of 5 µg/ml Trf. To remove externally bound fluorescently labelled Trf the cells were thereafter washed (3x/2 min) in ice-cold acidic buffer (0.1 M Glycine-HCl buffer pH 2.5 with 150 mM NaCl)[35] whilst kept on ice. The cells were then harvested for flow cytometry analysis, and analysed one sample at a time with mixed order of analysis whilst keeping the remaining samples on ice.

[1] = 1 µM HF488-labelled Aβ 1 h, 4 independent experiments in triplicate
[2] = 30 min pre-incubation, 1 µM Aβ 1 h, n = 3

Substance	effect of CPZ on Aβ uptake [1]	reduction in Aβ uptake with cytochalasin A or D [2]	effect of dynasore on Aβ uptake (80 µM dynasore, 30 min pre-incubation, 1 µM HF488-labelled Aβ 1 h, 4 independent experiments in triplicate, ANOVA with Bonferroni)	reduction in Aβ uptake with IPA-3 and wortmannin (10 µM IPA-3 or 25 nM wortmannin, 30 min pre-incubation, 1 µM Aβ 1 h, n = 3)
Aβ(1–42): Synthetic 42 residue amyloid-β peptide conjugated to HiLyte Fluor HF488 (or HF647) at the N-terminus, from Anaspec	impaired to a greater extent than that of Aβ(1–40)	~ 70%	statistically significantly reduced	–
Aβ(1–40): Synthetic 40 residue amyloid-β peptide conjugated to HiLyte Fluor HF488 (or HF647) at the N-terminus, from Anaspec	reductions	~ 30%	–	~ 50%
